Drawing on BindingDB's records for doi:10.1021/jm980707k (University of Alabama At Birmingham, 1999), this text covers IC50 for six compounds.

Broadly, the IC50 is the point on the concentration scale where inhibition reaches its midpoint.

This experiment can be described thus: In vitro inhibitory activity against H1N9 Influenza A Neuraminidase.
Consider `CCC(CC)Nc1cc(C(=O)O)ccc1N1CCCC1=O` [3-(1-Ethyl-propylamino)-4-(2-oxo-pyrrolidin-1-yl)-benzoic acid], for which the IC50 was determined as 222 µM.
For `NCC1CCC(=O)N1c1ccc(C(=O)O)cc1N=C(N)N` (stereo unspecified) [4-(2-Aminomethyl-5-oxo-pyrrolidin-1-yl)-3-guanidino-benzoic acid] the value was 2600 µM; for `O=C(O)c1ccc(N2C(=O)CCC2(CO)CO)cc1` [4-(2,2-Bis-hydroxymethyl-5-oxo-pyrrolidin-1-yl)-benzoic acid anion], 760 µM.
`CC(=O)N[C@@H]1[C@@H]([C@H](O)[C@H](O)CO)O[C@](O)(C(=O)O)C[C@H]1O` [(2S,4R,5S,6S)-5-Acetylamino-2,4-dihydroxy-6-((1R,2R)-1,2,3-trihydroxy-propyl)-tetrahydro-pyran-2-carboxylic acid] displayed an IC50 of 10 µM.
The same measure for `NC(N)=Nc1cc(C(=O)O)ccc1N1C(=O)CCC1(CO)CO` [4-(2,2-Bis-hydroxymethyl-5-oxo-pyrrolidin-1-yl)-3-guanidino-benzoic acid]: 5 µM; for `CCC(CC)Nc1cc(C(=O)O)ccc1N1C(=O)CCC1(CO)CO` [4-[2,2-bis(hydroxymethyl)-5-oxopyrrolidin-1-yl]-3-[(1-ethylpropyl)amino]benzoic acid]: 0.048 µM.
